Data reported in patent US9562057B2, “(Thieno[2,3-b][1,5]benzoxazepin-4-yl)piperazin-1-yl compounds as dual activity H1 inverse agonists/5-HT2A antagonists” (Eli Lilly and Company, priority 2013, dated 2017).
Where a name gives a salt, the structure may show the parent alone.

Tests used:
Plasma clearance = type: in vivo; conditions: dog, 1 mg/kg, male Beagle dogs, intravenous, 1 mL/kg of 1.0 mg/mL (free base equivalents)
Method: Male Beagle dogs (body weight range 10-12 kg) are obtained from Marshall Bioresources, USA. Test compound is administered intravenously in solution (1 mL/kg) in 20% Captisol® in 22.5 mM phosphate buffer, pH 2, at a final drug concentration of 1.0 mg/mL (free base equivalents). Blood samples are obtained from the jugular vein over 24 hr. Samples of plasma are obtained by centrifugation and stored frozen (−20° C.) prior to analysis.
Frozen plasma samples are thawed to room temperature for bioanalysis of concentrations of test compound. A related internal standard compound in acetonitrile/methanol (1:1, v/v) is added to all samples of plasma (1:1, v/v). The samples are centrifuged to remove precipitated protein prior to analysis. The supernatants are analysed by injection and rapid gradient elution on a Javelin Betasil C18 column (20×2.1 mm cartridge, Mobile phase A: Water/1 M NH4HCO3, 2000:10 v/v, Mobile Phase B: MeOH/1 M NH4HCO3, 2000:10 v/v). The eluted analytes are detected by LC-MS-MS analysis using a Sciex API 4000 triple quadrupole mass spectrometer. Concentrations of compound are determined from standards prepared and analysed under identical conditions. Clearance is calculated using non-compartmental analysis in Watson 7.4, Thermo Fisher Scientific, Inc.

5-HT6 = 5-HT6 (Homo sapiens, UniProt P50406); assay: 5-HT6 binding
Description: (§1) Further, the compounds of the invention may be tested in binding assays and functional activity assays by well known methods for other physiologically important receptors such as, but not limited to, the hERG channel, other serotonin receptors (specifically 5-HT1B and 5-HT1D receptors, lack of agonist activity at 5-HT2B receptors, 5-HT2C, 5-HT5, 5-HT6, and 5-HT7 receptors), dopaminergic receptors (specifically D1, D2, and D3), GABAA receptors, adrenergic receptors and monoamine transporters.

Serotonin Transporter = Serotonin Transporter (Homo sapiens, UniProt P31645); assay: Serotonin transporter binding
Description: as §1

hERG Channel = hERG Channel (Homo sapiens, UniProt Q12809); assay: hERG channel inhibition; conditions: inhibition at 10 μM
Description: as §1

5-HT2A receptor = target: T1, 5-HT2A receptor (Mus musculus, UniProt P35363); assay: Inhibition of DOI induced headshake activity; type: in vivo; conditions: male C57BL/6J mice, 10 mg/kg PO, 3 mg/kg DOI, 60 min. pre-treatment
T1 construct: The in vivo 5-HT2A receptor antagonist activity; from tissue; host or cells: living C57BL/6J mice
Method: (see for example Bartoszyk G D, van Amsterdam C, Böttcher H, Seyfried C A. EMD 281014, a new selective serotonin 5-HT2A receptor antagonist. Eur J Pharmacol. 2003 473: 229-230.) Briefly, male C57BL/6J mice (20-25 g, Charles River) are housed in standard housing conditions ([…], 07.00 to 19.00 light phase, constant temperature (19-23° C.) and humidity (50%+/−10), ad lib food and water). Mice received either vehicle (0.25% Methyl cellulose), DOI (3 mg/kg in saline) or test compound at 10 mg/kg PO plus DOI (3 mg/kg in saline). Test compounds are individually evaluated in groups of four per experiment with n=4 for each compound, together with vehicle and DOI+vehicle (n=8). After a test compound pre-treatment time of 60 min. the mice receive either vehicle (saline) or 3 mg/kg DOI dosed subcutaneously, and are then placed into clear perspex observation chambers. […] The data is analyzed using an ANOVA and post-hoc Dunnet's Test. The compound of example 2 is tested essentially as described and is found to inhibit the DOI induced headshake response produced by 3 mg/kg DOI by 100% at 10 mg/kg.

[1] = target: T2, recombinant H1 receptor (human) (Homo sapiens, UniProt P35367); assay: H1 competition binding assay ([3H]-Pyrilamine, SPA)
T2 construct: expressed in transfected cells; host or cells: HEK-293
Method: [^3H]-Pyrilamine binding experiments are carried out in SPA (scintillation proximity assay) 96-well format. Membranes used in this assay are prepared from HEK-293 cells stably expressing recombinant H1 receptor (human). The incubation is initiated by the addition of a mixture of WGA PVT SPA beads (1 mg/well, Perkin Elmer (MA, USA) RPNQ0001) and 3 μg membranes to assay buffer (67 mM Tris; pH 7.6) containing 3.5 nM [^3H]-Pyrilamine and varying concentrations of the test compound (10 point concentration response curves). Non-specific binding is determined in the presence of 10 μM Triprolidine. Samples are incubated for 4 hr. at room temperature (22° C.) and then read in a Microbeta® Trilux.
(§2) Binding data analysis Curves are evaluated using a 4-parameter logistic nonlinear equation to obtain the concentration of competitor causing 50% inhibition of radioligand binding (IC50). Equilibrium dissociation constants (Ki) are calculated according to the equation Ki=IC50/(1+L/Kd), where L equals the concentration of radioligand used in the experiment and Kd equals the equilibrium dissociation constant of the radioligand for the receptor, determined from standard saturation analysis or homologous competition experiments. Reported values for Ki, where n values are indicated, are shown as geometric mean±the standard error of the mean (SEM), with the number of replicate determinations indicated by n. […]

[2] = target: T3, recombinant 5-HT2A receptor (human) (Homo sapiens, UniProt P28223); assay: 5-HT2A competition binding assay ([3H]-Ketanserin, SPA)
T3 construct: expressed in transfected cells; host or cells: AV-12
Method: [^3H]-Ketanserin binding experiments are carried out in SPA 96-well format. Membranes used in this assay are prepared from AV-12 cells stably expressing recombinant 5-HT2A receptor (human). The incubation is initiated by the addition of a mixture of WGA YSi SPA beads (1 mg/well, Perkin Elmer (MA, USA), RPNQ0011) and 2 μg membranes to assay buffer (67 mM Tris, 0.5 mM EDTA; pH 7.6) containing 3.1 nM [^3H]-Ketanserin and varying concentrations of the test compound (10 point concentration response curves). Non-specific binding is determined in the presence of 20 μM 1-(1-naphthyl) piperazine. Samples are incubated for 4 hr. at room temperature (22° C.) and then read in a Microbeta® Trilux.
as §2

Adrenergic alpha2B = Adrenergic alpha2B (Homo sapiens, UniProt P18089); assay: Adrenergic alpha2B binding
Description: as §1

T3 sequence (P28223 whole entry): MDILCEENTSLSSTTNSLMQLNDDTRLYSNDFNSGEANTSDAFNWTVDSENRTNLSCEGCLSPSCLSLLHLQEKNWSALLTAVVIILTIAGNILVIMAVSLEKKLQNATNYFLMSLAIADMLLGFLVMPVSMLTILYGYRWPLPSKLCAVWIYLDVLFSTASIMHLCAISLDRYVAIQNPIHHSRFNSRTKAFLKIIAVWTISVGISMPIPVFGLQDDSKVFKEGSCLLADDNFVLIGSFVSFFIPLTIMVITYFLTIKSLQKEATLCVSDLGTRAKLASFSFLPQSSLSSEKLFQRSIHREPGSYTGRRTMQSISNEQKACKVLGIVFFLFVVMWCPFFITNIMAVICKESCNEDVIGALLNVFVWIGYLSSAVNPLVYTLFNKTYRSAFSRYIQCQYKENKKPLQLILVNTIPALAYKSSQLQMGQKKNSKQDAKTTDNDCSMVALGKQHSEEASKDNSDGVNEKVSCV
T2 sequence (P35367 whole entry): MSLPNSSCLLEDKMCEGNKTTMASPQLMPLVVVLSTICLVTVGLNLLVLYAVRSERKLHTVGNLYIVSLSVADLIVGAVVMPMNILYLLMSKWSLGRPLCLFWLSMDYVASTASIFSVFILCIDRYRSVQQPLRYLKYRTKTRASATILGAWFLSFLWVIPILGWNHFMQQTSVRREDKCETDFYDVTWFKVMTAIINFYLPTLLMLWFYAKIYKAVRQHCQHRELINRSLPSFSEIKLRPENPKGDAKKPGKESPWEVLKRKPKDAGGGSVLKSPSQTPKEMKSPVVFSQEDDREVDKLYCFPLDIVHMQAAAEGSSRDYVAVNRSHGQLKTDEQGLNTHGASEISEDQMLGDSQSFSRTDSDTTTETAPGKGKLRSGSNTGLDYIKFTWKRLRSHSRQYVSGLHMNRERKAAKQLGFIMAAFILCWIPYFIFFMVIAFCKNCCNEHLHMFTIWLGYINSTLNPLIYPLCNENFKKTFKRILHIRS
T1 sequence (P35363 whole entry): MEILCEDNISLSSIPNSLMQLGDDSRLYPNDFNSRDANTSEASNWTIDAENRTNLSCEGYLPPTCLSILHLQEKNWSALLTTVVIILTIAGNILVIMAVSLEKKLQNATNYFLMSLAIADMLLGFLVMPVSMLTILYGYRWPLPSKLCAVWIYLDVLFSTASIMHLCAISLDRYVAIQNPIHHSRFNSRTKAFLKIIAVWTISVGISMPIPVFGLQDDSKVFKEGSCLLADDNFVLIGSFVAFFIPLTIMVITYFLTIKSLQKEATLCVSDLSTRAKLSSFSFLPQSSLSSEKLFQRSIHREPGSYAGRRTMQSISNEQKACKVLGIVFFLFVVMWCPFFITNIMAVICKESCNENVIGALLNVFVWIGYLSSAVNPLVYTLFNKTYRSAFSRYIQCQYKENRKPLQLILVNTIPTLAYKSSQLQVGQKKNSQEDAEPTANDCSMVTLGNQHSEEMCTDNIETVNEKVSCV
Adrenergic alpha2B, sequence (P18089 whole entry): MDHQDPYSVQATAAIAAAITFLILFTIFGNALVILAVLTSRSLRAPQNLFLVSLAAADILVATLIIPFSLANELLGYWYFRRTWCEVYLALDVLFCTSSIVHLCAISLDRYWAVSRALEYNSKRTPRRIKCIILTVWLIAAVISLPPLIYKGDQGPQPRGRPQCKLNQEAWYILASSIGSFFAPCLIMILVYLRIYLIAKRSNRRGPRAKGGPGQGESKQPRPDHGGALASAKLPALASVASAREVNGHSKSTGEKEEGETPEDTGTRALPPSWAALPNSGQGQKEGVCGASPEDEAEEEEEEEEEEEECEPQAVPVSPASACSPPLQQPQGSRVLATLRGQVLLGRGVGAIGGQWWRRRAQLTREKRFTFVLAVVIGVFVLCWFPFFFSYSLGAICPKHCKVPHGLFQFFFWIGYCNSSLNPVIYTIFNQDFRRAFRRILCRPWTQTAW
Serotonin Transporter, sequence (P31645 whole entry): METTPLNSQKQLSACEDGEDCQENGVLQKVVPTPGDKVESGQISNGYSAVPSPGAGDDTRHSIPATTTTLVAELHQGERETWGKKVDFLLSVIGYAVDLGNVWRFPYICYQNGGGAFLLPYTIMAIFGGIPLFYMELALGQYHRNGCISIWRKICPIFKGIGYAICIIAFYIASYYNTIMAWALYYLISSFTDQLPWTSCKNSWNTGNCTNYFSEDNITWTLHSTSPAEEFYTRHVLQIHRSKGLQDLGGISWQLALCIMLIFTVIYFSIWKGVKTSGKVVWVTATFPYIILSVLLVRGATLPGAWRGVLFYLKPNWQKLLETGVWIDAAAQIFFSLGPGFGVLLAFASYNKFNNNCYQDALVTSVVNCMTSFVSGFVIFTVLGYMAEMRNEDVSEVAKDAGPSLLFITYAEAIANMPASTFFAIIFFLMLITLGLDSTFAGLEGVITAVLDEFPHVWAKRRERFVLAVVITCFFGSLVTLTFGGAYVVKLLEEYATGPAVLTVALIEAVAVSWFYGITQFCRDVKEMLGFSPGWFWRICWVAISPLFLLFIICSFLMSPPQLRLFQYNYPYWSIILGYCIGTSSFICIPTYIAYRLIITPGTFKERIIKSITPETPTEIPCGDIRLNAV
5-HT6, sequence (P50406 whole entry, species assumed): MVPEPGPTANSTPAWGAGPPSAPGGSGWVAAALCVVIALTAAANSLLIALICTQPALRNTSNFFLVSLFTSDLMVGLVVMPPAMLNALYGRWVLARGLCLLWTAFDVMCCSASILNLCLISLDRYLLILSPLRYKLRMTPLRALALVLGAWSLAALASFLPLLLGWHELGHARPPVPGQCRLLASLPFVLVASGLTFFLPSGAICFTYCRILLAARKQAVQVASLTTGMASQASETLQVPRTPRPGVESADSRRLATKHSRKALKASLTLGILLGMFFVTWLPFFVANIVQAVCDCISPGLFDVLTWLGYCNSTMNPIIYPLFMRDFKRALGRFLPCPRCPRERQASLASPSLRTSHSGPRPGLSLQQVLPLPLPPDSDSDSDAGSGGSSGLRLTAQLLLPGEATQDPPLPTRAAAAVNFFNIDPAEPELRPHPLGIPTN
hERG Channel, sequence (Q12809 whole entry): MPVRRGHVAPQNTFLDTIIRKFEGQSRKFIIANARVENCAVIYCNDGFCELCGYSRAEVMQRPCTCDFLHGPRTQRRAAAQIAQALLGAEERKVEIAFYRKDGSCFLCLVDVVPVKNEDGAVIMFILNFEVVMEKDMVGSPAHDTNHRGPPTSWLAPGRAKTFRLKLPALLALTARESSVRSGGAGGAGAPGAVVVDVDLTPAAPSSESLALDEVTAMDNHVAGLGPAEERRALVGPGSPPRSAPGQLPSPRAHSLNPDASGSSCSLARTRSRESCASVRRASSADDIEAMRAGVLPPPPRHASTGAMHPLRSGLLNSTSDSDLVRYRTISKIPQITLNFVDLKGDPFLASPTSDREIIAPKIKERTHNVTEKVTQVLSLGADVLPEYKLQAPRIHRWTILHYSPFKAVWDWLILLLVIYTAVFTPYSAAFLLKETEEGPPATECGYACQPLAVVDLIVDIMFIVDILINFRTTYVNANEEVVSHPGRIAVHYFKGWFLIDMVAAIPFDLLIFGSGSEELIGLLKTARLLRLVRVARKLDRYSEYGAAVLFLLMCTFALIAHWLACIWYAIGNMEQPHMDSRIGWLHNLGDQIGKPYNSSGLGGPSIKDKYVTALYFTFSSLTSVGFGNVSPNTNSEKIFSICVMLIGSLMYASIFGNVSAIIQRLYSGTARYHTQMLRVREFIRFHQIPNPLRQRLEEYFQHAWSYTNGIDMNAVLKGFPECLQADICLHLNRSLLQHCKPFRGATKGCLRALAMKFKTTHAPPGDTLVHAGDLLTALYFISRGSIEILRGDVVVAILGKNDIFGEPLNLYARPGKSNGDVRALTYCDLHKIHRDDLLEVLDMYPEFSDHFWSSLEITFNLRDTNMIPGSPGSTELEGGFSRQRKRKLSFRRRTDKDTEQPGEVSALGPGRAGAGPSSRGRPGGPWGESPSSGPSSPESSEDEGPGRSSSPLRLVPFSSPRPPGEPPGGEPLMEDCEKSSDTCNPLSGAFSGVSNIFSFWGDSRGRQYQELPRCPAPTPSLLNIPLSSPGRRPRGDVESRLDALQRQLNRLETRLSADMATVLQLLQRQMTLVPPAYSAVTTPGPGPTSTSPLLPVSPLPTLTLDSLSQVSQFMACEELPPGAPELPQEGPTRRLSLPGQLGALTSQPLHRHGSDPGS

Cc1ccc2c(c1)Oc1sc(C3CC3)cc1C(N1CCN(CC(C)(C)C(=O)O)CC1)=N2 [Example 2, 3-[4-(2-Cyclopropyl-8-methyl-thieno[2,3-b][1,5]benzoxazepin-4-yl)piperazin-1-yl]-2,2-dimethyl-propanoic acid dihydrochloride]
clearance (Plasma clearance): 6.06 mL/min/kg | Ki (5-HT6): > 5830 nM | Ki (Serotonin Transporter): > 478 nM | hERG Channel (μM) (hERG Channel): 53% inhibition | inhibition of DOI induced headshake response (5-HT2A receptor): 100% | Ki [1]: 43.2 nM | Ki [2]: 10.2 nM | Ki (Adrenergic alpha2B): 1060 nM
